The source of these data is PubChem BioAssay AID2305 (GlaxoSmithKline (GSK), 2010).

For this assay, the system named is P. falciparum 3D7 growth, pLDH absorbance. Description: P. falciparum 3D7 growth inhibition, dose response, strain 3D7 (AID 2305).

pIC50: −log10 of the molar value. Several values for one entry are separate records, joined by “and”; a condition that tells them apart may be missing. Identical values can stand only once.

For orientation: pIC50 means −log10 of the IC50, conventionally taken in molar units. Read a low pIC50 as a large IC50.

The molecule `COc1cc(Cc2cnc(N)nc2N)cc(OCCNC(=O)OCc2ccccc2)c1OC` gave a negative-log IC50 (pIC50) of 6.04.
In the case of `Oc1ccccc1CCNCC1CCc2ccccc2C1` (stereo not drawn), the pIC50 is 6.16.
Turning to `Cc1ccc(CC(C)NCC(O)c2cccc(Br)c2)cc1` (stereo not drawn), the negative logarithm of the IC50 (pIC50) was 6.10.
For `O=C(Nc1cccc(-c2ccc(CN3CCCC3)cc2)c1)c1ccc(Cl)cc1`, the pIC50 is 6.37.
As for `O=C(Nc1ccc2c(c1)CCN(C1CCC1)CC2)c1cn(-c2ccccc2)nc1-c1ccccc1`, the pIC50 was 6.09.
In turn, `O=C(NCc1ccccc1)Nc1cccc(-c2cccc(-c3nc4ccc(C(F)(F)F)cc4[nH]3)c2)c1` had a pIC50 of 6.59.
In the case of `O=C(CCc1nc2c(cnn2-c2ccccc2)c(=O)[nH]1)NC1CCSc2ccccc21` (stereo not drawn), the pIC50 was 5.97.
The figure for `CN(C)CCC1CCN(CCS(=O)(=O)c2cccc(Nc3ccc(-c4cccc(F)c4)cn3)c2)CC1` is 5.97; for `COc1ccc(C=CC(=O)Nc2ccc(N3CCCC3)cc2)cc1` it is 5.89; for `N=C1c2ccccc2CN1CC(=O)c1ccc(Cl)c(Cl)c1` it is 6.14.
In turn, `CC(=O)Nc1ccc2[nH]cc(C3CCN(CC4CCN(C(=O)/C=C/c5ccc(Cl)c(Cl)c5)CC4)CC3)c2n1` gave a negative logarithm of the IC50 (pIC50) of 6.80.
In turn, `CCN(CC)CCNc1ccnc2[nH]c3ccc(C)cc3c12` showed a pIC50 of 6.17.
Consider `O=C(/C=C/c1ccc(C(F)(F)F)cc1)N1CCC(CCN2CCC(c3c[nH]c4ccccc34)CC2)CC1`, for which the pIC50 is 6.14.
Consider `O=C1Nc2cccc3c2C1(CCCCN1CCC(c2cc4ccncc4[nH]2)CC1)CCC3` (stereo not drawn), for which the pIC50 is 6.10 and 6.04.
The result for `O=C(CC1NC(=O)c2ccccc21)Nc1ccc(-c2ccc(-c3nc4ccc(C(F)(F)F)cc4[nH]3)cc2)cc1` (stereo not drawn) reads 6.33; that for `CCCCCCC(CC)c1cc(O)c2c(c1)OC(C)(C)c1ccncc1-2` (stereo not drawn), 6.09; that for `Nc1nccc2ccc(-c3ccc(NC(=O)Nc4cc(C(F)(F)F)ccc4F)cc3)cc12`, 7.05.
Molecule `COC(=O)c1cccc(CNCc2ccc(-c3ccc(-c4nc5ccc(C(F)(F)F)cc5[nH]4)s3)cc2)c1` showed a pIC50 of 6.80.
In the case of `c1ccc2[nH]c(-c3ccc(-c4ccc(CN5CCN(CCN6CCOCC6)CC5)cc4)s3)nc2c1`, the pIC50 was 6.55.
As for `CC(=O)Nc1nc(N)c2c(ccc3c2ccn3CC(C)C)n1`, the pIC50 was 7.15.
As to `O=C(Nc1ccccc1F)NC1CCN(c2ccnc(Nc3ccc(F)cc3)n2)C1` (stereo not drawn), the pIC50 was 6.07.
Take `O=C(/C=C/c1ccc(Cl)c(Cl)c1)NCCCCCCN1CCN(C(=O)Nc2ccc(Cl)c(Cl)c2)CC1`: the pIC50 was 6.03.
`O=C(/C=C/c1ccc(Cl)c(Cl)c1)N1CCC(C(O)CN2CCC(c3c[nH]c4ccccc34)CC2)CC1` (stereo not drawn) had a pIC50 of 6.07.
As to `Oc1cccc(Nc2nc(NCC3CCCO3)c3ccccc3n2)c1` (stereo not drawn), the pIC50 was 6.09.
For the molecule `Oc1cccc(C2CCCN(Cc3cccc4cc[nH]c34)C2)c1` (stereo not drawn), the pIC50 is 6.29.
For the molecule `COc1ccc2c(NN=Cc3cccc(Cl)c3)ccnc2c1`, the pIC50 is 6.14.
`Cc1cc(N(CCO)CCCN2CCCCC2)nc(Nc2ccc(Cl)cc2)n1`: the pIC50 is 6.26.
In turn, `Oc1ccc2[nH]cc(C3=CCN(CCc4ccccc4)CC3)c2c1` showed a pIC50 of 6.51.
The figure for `O=C(NCc1ccccc1)Nc1ccc(-c2cccc(-c3nc4ccc(C(F)(F)F)cc4[nH]3)c2)cc1` is 6.18; for `O=C(/C=C/c1ccc(Cl)c(Cl)c1)N1CCN(C(=O)Nc2cccc(C(F)(F)F)c2)CC1` it is 6.15; for `O=c1[nH]c2ccc3[nH]cccc3c2c1C=Nc1ccc(N2CCN(CCO)CC2)cc1` it is 5.90.
On to `CSC1=NC(=Nc2c(C)cccc2C)C2(CCCCC2)N1c1ccccc1Cl`, for which the pIC50 is 6.09.
The result for `COc1ccc(-c2cc(-c3nc4ccc(CN)cc4[nH]3)c(=O)n(C)c2)cc1OC` reads 5.85; that for `CCCC(C)NC(=O)[C@H](CC1CCCCC1)NC(=O)c1ccc(O)c(-c2cccc(C(F)(F)F)c2)c1` (stereo partly drawn), 6.28.
The result for `CC(C)OC(=O)c1ccc(NC(=O)N[C@@H](Cc2ccc(O)cc2)C(=O)NC2C[C@H]3CC[C@@H](C2)N3Cc2ccccc2)cc1` (stereo partly drawn) reads 5.97; that for `CCCc1cc(OC)c(CC2c3cc(O)c(C)cc3CCN2C)cc1OC` (stereo not drawn), 6.15.
The result for `CCCNC(=O)CN1CN(c2ccccc2)C2(CCN(C(=O)c3ccc(C(C)(C)C)cc3)CC2)C1=O` reads 6.33; that for `Nc1nc2ncn(COC(COCc3ccccc3)COCc3ccccc3)c2c(=O)[nH]1` (tested in a mixture with another compound), 6.15; that for `COc1ccc(OC)c(Cc2cnc3nc(N)[nH]c(=O)c3c2C)c1`, 6.44.
In the case of `CC(C)CNCc1cccc(-c2cccc(CN(CCN(C)C)C(=O)NCCc3ccccc3)c2)c1`, the pIC50 is 6.16.
Turning to `CN(C)CCN(C)Cc1cccc(-c2ccc3c(Nc4ccc(F)cc4Cl)ccnc3c2)c1`, the pIC50 is 6.96.
`Nc1nc(N)c2c(Cc3ccccc3)cccc2n1` had a pIC50 of 6.08.
Molecule `CN(C)c1ccc2nc(N)nc(N)c2c1Cl` gave a pIC50 of 6.33.
